Values quoted from earlier work, collected in patent US20100322881A1, “UVB FILTER BASED ON ASCORBIC ACID DERIVATIVES” (MERCK PATENT GESELLSCHAFT, priority 2008, published 2010).

Tested on: prolyl-4-hydroxylase
Conditions: literature statement; for supporting the activity of the enzyme prolyl-4-hydroxylase: Biochem. J. 1994, 300, 75-79

Row | SMILES | affinity to the enzyme (compared with the monosubstituted compound) | supporting the activity of the enzyme prolyl-4-hydroxylase
1 | CC(=O)Oc1ccccc1C(=O)OC[C@H](OC(=O)c1ccccc1OC(C)=O)[C@H]1OC(=O)C(O)=C1O [O^5O^6-bis(2-acetoxybenzoyl) L-ascorbate] | lower affinity | capable of supporting the activity
2 | CC(=O)Oc1ccccc1C(=O)OC[C@H](O)[C@H]1OC(=O)C(O)=C1O [O^6-(2-acetoxybenzoyl) L-ascorbate] | – | capable of supporting the activity
